Laboratory results from ChEMBL document CHEMBL4270604, “Hedgehog pathway inhibitors of the acylthiourea and acylguanidine class show antitumor activity on colon cancer in vitro and in vivo” (Eur J Med Chem, 2018).

Columns and labels:
[1] = Tmax in CD1 mouse at 200 mg/kg, po administered as single dose by HPLC-MS/MS analysis; format: ADME, organism-based; details: in vivo
CYP3A4 [2] = biological target: T1, CYP3A4 (Homo sapiens, UniProt P08684); experiment: Inhibition of recombinant human CYP3A4 expressed in insect cell microsomes at 10 uM using Luciferin-IPA as substrate preincubated for 10 mins followed by NADPH addition measured after 10 mins by luminometric method; format: ADME; details: probe Luciferin-IPA
T1 sequence (P08684 whole entry): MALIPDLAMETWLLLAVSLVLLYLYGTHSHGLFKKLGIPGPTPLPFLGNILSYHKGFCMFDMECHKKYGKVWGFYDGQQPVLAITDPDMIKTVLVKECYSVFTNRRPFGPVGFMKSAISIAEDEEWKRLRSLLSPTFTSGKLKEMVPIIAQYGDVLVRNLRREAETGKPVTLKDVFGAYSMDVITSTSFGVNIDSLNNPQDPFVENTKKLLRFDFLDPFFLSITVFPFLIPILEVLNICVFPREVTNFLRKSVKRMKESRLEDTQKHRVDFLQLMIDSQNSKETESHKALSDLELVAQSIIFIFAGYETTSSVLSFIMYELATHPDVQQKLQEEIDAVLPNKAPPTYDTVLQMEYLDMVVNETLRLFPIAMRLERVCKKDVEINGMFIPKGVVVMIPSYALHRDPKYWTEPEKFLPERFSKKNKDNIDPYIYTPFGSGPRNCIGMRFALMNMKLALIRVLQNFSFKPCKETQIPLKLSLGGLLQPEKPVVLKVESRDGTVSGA

CYP1A2 [3] = biological target: T2, CYP1A2 (Homo sapiens, UniProt P05177); experiment: Inhibition of recombinant human CYP1A2 expressed in insect cell microsomes at 10 uM using Luciferin-ME as substrate preincubated for 10 mins followed by NADPH addition measured after 30 mins by luminometric method; format: ADME; details: probe Luciferin-ME
T2 sequence (P05177 whole entry): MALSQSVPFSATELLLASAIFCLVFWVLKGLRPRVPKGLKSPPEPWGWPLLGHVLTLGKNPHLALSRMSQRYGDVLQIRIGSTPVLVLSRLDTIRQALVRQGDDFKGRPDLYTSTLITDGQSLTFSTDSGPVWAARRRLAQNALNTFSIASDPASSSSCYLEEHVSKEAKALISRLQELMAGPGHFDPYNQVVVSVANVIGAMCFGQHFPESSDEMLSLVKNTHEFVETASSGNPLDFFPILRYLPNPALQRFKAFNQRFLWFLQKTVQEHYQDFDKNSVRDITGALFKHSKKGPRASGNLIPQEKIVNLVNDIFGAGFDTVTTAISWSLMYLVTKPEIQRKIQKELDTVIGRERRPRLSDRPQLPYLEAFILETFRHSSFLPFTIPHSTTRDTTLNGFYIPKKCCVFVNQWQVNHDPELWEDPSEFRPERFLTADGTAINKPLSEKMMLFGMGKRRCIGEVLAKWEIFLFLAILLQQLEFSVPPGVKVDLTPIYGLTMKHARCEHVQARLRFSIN

[4] = Apparent terminal volume of distribution in CD1 mouse at 200 mg/kg, po administered as single dose by HPLC-MS/MS analysis; format: ADME, organism-based; details: in vivo, read-out: Vz/F
CYP2D6 = CYP2D6 (Homo sapiens, UniProt P10635); experiment: Inhibition of recombinant human CYP2D6 expressed in insect cell microsomes at 10 uM using Luciferin-ME EGE as substrate preincubated for 30 mins followed by NADPH addition measured after 45 mins by luminometric method; format: ADME; details: probe Luciferin-ME EGE
Chain of CYP2D6 (P10635 whole entry): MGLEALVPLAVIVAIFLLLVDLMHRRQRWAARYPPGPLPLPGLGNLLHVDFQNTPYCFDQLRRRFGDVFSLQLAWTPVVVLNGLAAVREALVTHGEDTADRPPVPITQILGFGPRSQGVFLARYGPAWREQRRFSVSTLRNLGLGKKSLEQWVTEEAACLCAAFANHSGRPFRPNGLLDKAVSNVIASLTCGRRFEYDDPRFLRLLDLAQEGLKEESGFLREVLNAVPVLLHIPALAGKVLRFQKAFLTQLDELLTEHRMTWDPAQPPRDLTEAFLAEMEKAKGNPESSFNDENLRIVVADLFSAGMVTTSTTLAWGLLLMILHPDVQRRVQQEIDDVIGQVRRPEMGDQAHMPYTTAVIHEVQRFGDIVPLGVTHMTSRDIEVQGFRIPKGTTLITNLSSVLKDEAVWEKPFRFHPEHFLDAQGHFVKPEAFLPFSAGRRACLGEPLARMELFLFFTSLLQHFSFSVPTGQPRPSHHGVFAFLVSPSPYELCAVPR

HT-1080 = experiment: Antiproliferative activity against human HT1080 cells after 72 hrs by sulforhodamine-B assay; format: functional, cell-based; details: for IC50: HT-1080, 72 h
in vitro [5] = details: human, Caco-2
Description: Apparent permeability of the compound from basolateral to apical side in human Caco2 cells assessed as drug recovery after 120 mins by LC-MS/MS analysis

Mus musculus [6] = organism: Mus musculus; experiment: Inhibition of hedgehog signaling pathway in mouse Light2 cells stimulated with 100 nM SAG after 30 hrs by Gli-firefly luciferase reporter gene assay
[7] = as above
Cytochrome P450 1A2 = biological target: T3, Cytochrome P450 1A2 (Homo sapiens, UniProt P05177); experiment: Inhibition of recombinant human CYP1A2 expressed in insect cell microsomes using Luciferin-ME as substrate preincubated for 10 mins followed by NADPH addition measured after 30 mins by luminometric method; format: ADME; details: recombinant enzyme, 0.5 h
T3 sequence (P05177 whole entry): T2 sequence (P05177 whole entry)

[8] = AUC (infinity) in CD1 mouse at 200 mg/kg, po administered as single dose by HPLC-MS/MS analysis; format: ADME, organism-based; set-up: dose 200 mg/kg, route oral, time infinity; details: in vivo
CYP2C9 [9] = biological target: T4, CYP2C9 (Homo sapiens, UniProt P11712); experiment: Inhibition of recombinant human CYP2C9 expressed in insect cell microsomes at 10 uM using Luciferin-H as substrate preincubated for 30 mins followed by NADPH addition measured after 30 mins by luminometric method; format: ADME; details: probe Luciferin-H
T4 sequence (P11712 whole entry): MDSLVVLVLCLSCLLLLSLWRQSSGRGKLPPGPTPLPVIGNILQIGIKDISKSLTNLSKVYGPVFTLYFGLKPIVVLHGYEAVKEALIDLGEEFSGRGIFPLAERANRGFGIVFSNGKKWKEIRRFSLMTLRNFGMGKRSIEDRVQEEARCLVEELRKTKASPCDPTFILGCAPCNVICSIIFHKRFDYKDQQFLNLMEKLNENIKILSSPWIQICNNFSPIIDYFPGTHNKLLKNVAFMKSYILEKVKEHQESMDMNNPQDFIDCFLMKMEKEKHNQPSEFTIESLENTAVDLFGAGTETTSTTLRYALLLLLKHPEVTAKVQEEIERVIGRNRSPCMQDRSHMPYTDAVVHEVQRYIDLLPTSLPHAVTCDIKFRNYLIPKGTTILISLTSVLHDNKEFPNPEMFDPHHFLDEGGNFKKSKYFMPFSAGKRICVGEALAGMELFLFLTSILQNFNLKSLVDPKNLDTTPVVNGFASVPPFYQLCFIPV

[10] = Terminal half life in CD1 mouse at 200 mg/kg, po administered as single dose by HPLC-MS/MS analysis; format: ADME, organism-based; details: in vivo, read-out: beta t1/2 (converted)
Mus musculus [11] = experiment: Tlast in CD1 mouse at 200 mg/kg, po administered as single dose by HPLC-MS/MS analysis; format: ADME, organism-based; details: in vivo
CYP1A2 [12] = biological target: T2, CYP1A2; experiment: Inhibition of recombinant human CYP1A2 expressed in insect cell microsomes at 5 uM using Luciferin-ME as substrate preincubated for 10 mins followed by NADPH addition measured after 30 mins by luminometric method; format: ADME; details: probe Luciferin-ME
CYP2C9 [13] = biological target: T4, CYP2C9; experiment: Inhibition of recombinant human CYP2C9 expressed in insect cell microsomes at 1 uM using Luciferin-H as substrate preincubated for 30 mins followed by NADPH addition measured after 30 mins by luminometric method; format: ADME; details: probe Luciferin-H
CYP3A4 [14] = biological target: T1, CYP3A4; experiment: Inhibition of recombinant human CYP3A4 expressed in insect cell microsomes at 5 uM using Luciferin-IPA as substrate preincubated for 10 mins followed by NADPH addition measured after 10 mins by luminometric method; format: ADME; details: probe Luciferin-IPA
in vitro [15] = details: human, Caco-2; remark: listed apart in the source
Description: Apparent permeability of the compound from apical to basolateral side in human Caco2 cells after 120 mins by LC-MS/MS analysis

Mus musculus [16] = experiment: Clast in CD1 mouse at 200 mg/kg, po administered as single dose by HPLC-MS/MS analysis; format: ADME, organism-based; details: in vivo
[17] = Cmax in CD1 mouse at 200 mg/kg, po administered as single dose by HPLC-MS/MS analysis; format: ADME, organism-based; set-up: dose 200 mg/kg, route oral; details: in vivo
in vitro [18] = details: human, Caco-2; remark: listed apart in the source
Description: Efflux ratio of apparent permeability from basolateral to apical over apical to basolateral side in human Caco2 cells after 120 mins by LC-MS/MS analysis

[19] = Drug recovery in mouse plasma at 37 degC after 120 mins by HPLC-MS/MS analysis; format: ADME, cell-free; details: read-out: Drug recovery
CYP3A4 [20] = biological target: T1, CYP3A4; experiment: Inhibition of recombinant human CYP3A4 expressed in insect cell microsomes at 1 uM using Luciferin-IPA as substrate preincubated for 10 mins followed by NADPH addition measured after 10 mins by luminometric method; format: ADME; details: probe Luciferin-IPA
CYP2C19 = CYP2C19 (Homo sapiens, UniProt P33261); experiment: Inhibition of recombinant human CYP2C19 expressed in insect cell microsomes at 5 uM using Luciferin-H EGE as substrate preincubated for 20 mins followed by NADPH addition measured after 30 mins by luminometric method; format: ADME; details: probe Luciferin-H EGE
Chain of CYP2C19 (P33261 whole entry): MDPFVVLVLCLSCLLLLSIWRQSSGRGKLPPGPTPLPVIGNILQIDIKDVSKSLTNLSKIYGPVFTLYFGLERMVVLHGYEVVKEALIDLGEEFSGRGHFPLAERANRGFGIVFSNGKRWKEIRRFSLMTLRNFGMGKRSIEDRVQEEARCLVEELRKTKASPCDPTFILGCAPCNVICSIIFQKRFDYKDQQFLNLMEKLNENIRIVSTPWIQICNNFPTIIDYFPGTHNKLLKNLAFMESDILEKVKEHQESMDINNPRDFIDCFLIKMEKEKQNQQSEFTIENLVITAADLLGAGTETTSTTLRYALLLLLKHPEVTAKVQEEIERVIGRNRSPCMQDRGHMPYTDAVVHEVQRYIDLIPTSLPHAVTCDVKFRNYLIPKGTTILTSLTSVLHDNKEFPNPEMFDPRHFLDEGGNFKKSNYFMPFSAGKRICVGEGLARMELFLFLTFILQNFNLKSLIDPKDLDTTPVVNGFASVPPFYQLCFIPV

[21] = AUClast in CD1 mouse at 200 mg/kg, po administered as single dose by HPLC-MS/MS analysis; format: ADME, organism-based; set-up: dose 200 mg/kg, time 0 - last, route oral; details: in vivo
CYP1A2 [22] = biological target: T2, CYP1A2; experiment: Inhibition of recombinant human CYP1A2 expressed in insect cell microsomes at 1 uM using Luciferin-ME as substrate preincubated for 10 mins followed by NADPH addition measured after 30 mins by luminometric method; format: ADME; details: probe Luciferin-ME
[23] = biological target: T5, Coelenterazine h 2-monooxygenase (Renilla reniformis, UniProt P27652); experiment: Effect on Renilla reniformis luciferase; format: ADME
T5 sequence (P27652 whole entry): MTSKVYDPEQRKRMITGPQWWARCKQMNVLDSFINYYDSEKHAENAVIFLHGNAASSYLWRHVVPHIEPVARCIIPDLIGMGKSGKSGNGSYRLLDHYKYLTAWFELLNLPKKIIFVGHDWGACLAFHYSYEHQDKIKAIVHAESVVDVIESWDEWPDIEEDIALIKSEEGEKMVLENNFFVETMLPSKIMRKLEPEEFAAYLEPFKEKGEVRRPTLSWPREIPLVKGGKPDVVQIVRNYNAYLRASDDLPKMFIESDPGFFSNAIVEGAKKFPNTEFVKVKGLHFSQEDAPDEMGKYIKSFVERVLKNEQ

In the case of `COc1cc(C(=O)NC(=N)Nc2ccc(C)c(NC(=O)c3ccc(-c4ccc(F)cc4)cc3)c2)cc(OC)c1OC.Cl`, the Tmax [1] is reported as 1 h, the inhibition at 10 min, 10 µM (CYP3A4 [2]) is reported as 82% and the inhibition at 0.5 h, 10 µM (CYP1A2 [3]) is reported as 59%. For the same molecule, the Vd/F [4] was 3.32 L/kg, the inhibition at 0.75 h, 10 µM (CYP2D6) was 21% and the Activity (HT-1080) was “Dose-dependent effect”. For the same molecule, the IC50 (HT-1080) was 20 µM, the recovery at 2 h (in vitro [5]) was 30.6% and the inhibition (Mus musculus [6]) was “Dose-dependent effect”. For the same molecule, the IC50 [7] was 50 nM, the “inhibition (INH)” value (Cytochrome P450 1A2) was “Dose-dependent effect” and the AUC(0-inf) [8] was 224 µg·h/mL. The inhibition at 0.5 h, 10 µM (CYP2C9 [9]) was 79%, the half-life [10] was 156 min and the Tlast (Mus musculus [11]) was 24 h. The inhibition at 0.5 h, 5 µM (CYP1A2 [12]) was 58%, the inhibition at 0.5 h, 1 µM (CYP2C9 [13]) was 63% and the inhibition at 10 min, 5 µM (CYP3A4 [14]) was 78%. It also gave a Papp A→B at 2 h (in vitro [15]) of 0.366 ×10⁻⁶ cm/s, a Clast (Mus musculus [16]) of 0.0907 µg/mL and a Cmax [17] of 17300 ng/mL. The efflux ratio at 2 h (in vitro [18]) was 1.01, the remaining at 2 h [19] was 66.6% and the inhibition at 10 min, 1 µM (CYP3A4 [20]) was 52%. The inhibition at 0.5 h, 5 µM (CYP2C19) was 76%, the AUC(0-t) [21] was 223 µg·h/mL and the inhibition at 0.5 h, 1 µM (CYP1A2 [22]) was 46%. The Activity [23] was “Not Active”.
`COc1cc(C(=O)NC(=N)Nc2ccc(C)c(NC(=O)c3ccc(-c4ccccc4)cc3)c2)cc(OC)c1OC.Cl` gave a Tmax [1] of 2 h, an inhibition at 10 min, 10 µM (CYP3A4 [2]) of 87% and an inhibition at 0.5 h, 10 µM (CYP1A2 [3]) of 64%. The Vd/F [4] was 2.96 L/kg, the inhibition at 0.75 h, 10 µM (CYP2D6) was 23% and the Activity (HT-1080) was “Dose-dependent effect”. The IC50 (HT-1080) was 29 µM, the recovery at 2 h (in vitro [5]) was 31.9% and the inhibition (Mus musculus [6]) was “Dose-dependent effect”. For the same molecule, the IC50 [7] was 70 nM, the “inhibition (INH)” value (Cytochrome P450 1A2) was “Dose-dependent effect” and the AUC(0-inf) [8] was 237 µg·h/mL. The inhibition at 0.5 h, 10 µM (CYP2C9 [9]) was 74%, the half-life [10] was 144 min and the Tlast (Mus musculus [11]) was 24 h. The inhibition at 0.5 h, 5 µM (CYP1A2 [12]) was 64%, the inhibition at 0.5 h, 1 µM (CYP2C9 [13]) was 43% and the inhibition at 10 min, 5 µM (CYP3A4 [14]) was 76%. The Papp A→B at 2 h (in vitro [15]) was 0.428 ×10⁻⁶ cm/s, the Clast (Mus musculus [16]) was 0.0742 µg/mL and the Cmax [17] was 29600 ng/mL. For the same molecule, the efflux ratio at 2 h (in vitro [18]) was 1.52, the remaining at 2 h [19] was 72.1% and the inhibition at 10 min, 1 µM (CYP3A4 [20]) was 38%. The inhibition at 0.5 h, 5 µM (CYP2C19) was 79%, the AUC(0-t) [21] was 237 µg·h/mL and the inhibition at 0.5 h, 1 µM (CYP1A2 [22]) was 49%. The Activity [23] was “Not Active”.
Work on `COc1cc(C(=O)NC(=N)Nc2ccc(C)c(NC(=O)c3ccc(CCc4ccccc4)cc3)c2)cc(OC)c1OC.Cl` yielded a Tmax [1] of 4 h, an inhibition at 10 min, 10 µM (CYP3A4 [2]) of 92% and an inhibition at 0.5 h, 10 µM (CYP1A2 [3]) of 40%. The Vd/F [4] was 5.28 L/kg, the inhibition at 0.75 h, 10 µM (CYP2D6) was 11% and the Activity (HT-1080) was “Dose-dependent effect”. For the same molecule, the IC50 (HT-1080) was 2 µM, the recovery at 2 h (in vitro [5]) was 44.6% and the inhibition (Mus musculus [6]) was “Dose-dependent effect”. The IC50 [7] was 20 nM, the “inhibition (INH)” value (Cytochrome P450 1A2) was “Dose-dependent effect” and the AUC(0-inf) [8] was 137 µg·h/mL. For the same molecule, the inhibition at 0.5 h, 10 µM (CYP2C9 [9]) was 83%, the half-life [10] was 150 min and the Tlast (Mus musculus [11]) was 24 h. The inhibition at 0.5 h, 5 µM (CYP1A2 [12]) was 43%, the inhibition at 0.5 h, 1 µM (CYP2C9 [13]) was 68% and the inhibition at 10 min, 5 µM (CYP3A4 [14]) was 89%. The Papp A→B at 2 h (in vitro [15]) was 0.701 ×10⁻⁶ cm/s, the Clast (Mus musculus [16]) was 0.0507 µg/mL and the Cmax [17] was 11000 ng/mL. For the same molecule, the efflux ratio at 2 h (in vitro [18]) was 1.05, the remaining at 2 h [19] was 81.3% and the inhibition at 10 min, 1 µM (CYP3A4 [20]) was 76%. The inhibition at 0.5 h, 5 µM (CYP2C19) was 81%, the AUC(0-t) [21] was 137 µg·h/mL and the inhibition at 0.5 h, 1 µM (CYP1A2 [22]) was 29%. For the same molecule, the Activity [23] was “Not Active”.
